By IC50 is commonly meant the concentration needed to halve the response being measured. One may read the inhibition as the percentage by which the read-out fell short of the control.

Structures are written as SMILES.

From patent US5446037A, “2-[(substituted) methylene]cephalosporin sulfones as antiinflammatory, antidegenerative and antithrombin agents” (Synphar Laboratories, Inc., priority 1993, dated 1995) come the findings set out here.

The first assay concerns the target T1, human leukocyte elastase (HLE) (Homo sapiens, UniProt P08246).
T1 construct: purchased Elastin products, Missouri, U.S.A
T1 sequence (P08246 30-267): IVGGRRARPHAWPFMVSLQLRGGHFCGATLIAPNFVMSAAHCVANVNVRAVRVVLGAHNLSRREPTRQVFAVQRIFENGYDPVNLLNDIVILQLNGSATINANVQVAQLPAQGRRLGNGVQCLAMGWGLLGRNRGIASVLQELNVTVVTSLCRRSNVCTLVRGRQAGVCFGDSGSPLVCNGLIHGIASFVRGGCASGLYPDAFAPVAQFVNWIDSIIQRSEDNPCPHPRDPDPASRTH
In words: Human leukocyte elastase (HLE) inhibition (MeO-Suc-Ala-Ala-Pro-Val-pNA hydrolysis, absorbance at 410 nm). Conditions: Table I; pH 7.6, 30° C., 10 min pre-incubation, 10% (v/v) DMSO. It counts as biochemical. As to the method: Determining HLE Inhibitory Activity
Human leukocyte elastase (HLE) obtained from Elastin products, Missouri, U.S.A., is dissolved in 0.05M sodium acetate containing 0.4M sodium chloride (pH 5.3) and stored at -20° C. Small aliquots of these stock solutions (1 μm) are used in the HLE assays.
Buffer: 0.01M Na, K-Phosphate, 0.5M NaCl (pH 7.6)
Substrate: 0,014M Meo-Suc-Ala-Ala-Pro-Val-pNA in DMSO
Inhibitor: various concentrations in DMSO
Enzyme: stock solution noted above
The stock solution of enzyme was equilibrated to 30° C. A cuvette containing buffer and inhibitor was equilibrated to 30° C. 10 μL of enzyme solution giving a rate of 0.04-0.05 AU/min in the absence of inhibitor, was mixed into the buffer/inhibitor solution and this mixture was incubated at 30° C. for 10 minutes. After this pre-incubation substrate was added to give a final concentration of […] and a final DMSO concentration of 10% (v/v). The rate of product formation, proportional to the change in absorbance at 410 nm, was monitored for two minutes following the addition of substrate. For a typical IC50 plot the rate was determined at 5-8 inhibitor concentrations (in duplicate) spanning 10-80% inhibition (in most cases). In most cases the data could be fit by linear least-squares and the IC50 determined from this plot.
The compound `CO[C@H]1C(=O)N2C(C(=O)OC(C)(C)C)=C(COC(C)=O)/C(=C/c3cn(C)nn3)S(=O)(=O)[C@H]12` displayed an IC50 of 7.8 nM.
On the same count and under the same terms, in the case of `CO[C@H]1C(=O)N2C(C(=O)OC(C)(C)C)=C(COC(C)=O)/C(=C\c3cn(C)nn3)S(=O)(=O)[C@H]12` it was 9.2 nM.
On to `CO[C@H]1C(=O)N2C(C(=O)OC(C)(C)C)=C(COC(C)=O)/C(=C\c3cccnc3)S(=O)(=O)[C@H]12`, for which the IC50 was determined as 7.2 nM.
The same measure, in the same setting: in the case of `CO[C@H]1C(=O)N2C(C(=O)OC(C)(C)C)=C(COC(C)=O)/C(=C/c3cccnc3)S(=O)(=O)[C@H]12` it was 7.2 nM; in that of `CO[C@H]1C(=O)N2C(C(=O)OC(C)(C)C)=C(C)/C(=C/c3cccnc3)S(=O)(=O)[C@H]12`, 35 nM; in that of `CO[C@H]1C(=O)N2C(C(=O)OC(C)(C)C)=C(COC(C)=O)/C(=C/c3ccsc3)S(=O)(=O)[C@H]12`, 6.4 nM.
For the compound `CO[C@H]1C(=O)N2C(C(=O)OC(C)(C)C)=C(C)/C(=C\c3cn(C)nn3)S(=O)(=O)[C@H]12`, half-maximal inhibition (IC50) was put at 100 nM. This IC50 lies about 16-fold higher than the previous one.
Regarding `CO[C@H]1C(=O)N2C(C(=O)OC(C)(C)C)=C(C)/C(=C/c3cn(C)nn3)S(=O)(=O)[C@H]12`, inhibition was half-maximal at 75 nM (IC50).
The compound `CO[C@H]1C(=O)N2C(C(=O)OC(C)(C)C)=C(COC(C)=O)/C(=C/c3ccccc3F)S(=O)(=O)[C@H]12` [drawing 21] gave an IC50 of 5.8 nM.
`CO[C@H]1C(=O)N2C(C(=O)OC(C)(C)C)=C(COC(C)=O)/C(=C\c3ccccc3F)S(=O)(=O)[C@H]12` [drawing 22] came in with an IC50 of 6 nM.
Still for that read-out and setting: next, `CO[C@H]1C(=O)N2C(C(=O)OC(C)(C)C)=C(COC(C)=O)/C(=C\c3ccco3)S(=O)(=O)[C@H]12` [drawing 25]: 22 nM; `CO[C@H]1C(=O)N2C(C(=O)OC(C)(C)C)=C(COC(C)=O)/C(=C\c3ccsc3)S(=O)(=O)[C@H]12` [drawing 29]: 6.4 nM.

The target in the next assay is T2, human plasma thrombin (Homo sapiens, UniProt P00734).
T2 construct: purchased Boehringer, Montreal, Canada
In words: Inhibition of thrombin (Chromozym TH spectrophotometric end-point assay, 410 nm). The class given is biochemical. Conditions: Table II, pH 8.6, room temperature, 10 min pre-incubation, 30 min incubation. On the procedure:
Determining the Inhibition of Thrombin
Lyophilized human plasma thrombin obtained from Boehringer, Montreal, Canada was dissolved in 0.5M Na, K-phosphate buffer (pH 7.0) and stored at +4° C.
Substrate: 0.5 mM Chromozym TH (tosyl-glycyl-prolylarginine-4-nitroanilide acetate) in DMSO
Inhibitor: 10 μM dissolved in DMSO
Temperature: room temperature (approx.).
A single inhibitor concentration (10 μM) was tested using a spectrophotometric end-point assay (1 ml final volume). Enzyme activity was monitored by formation of a product that absorbed light at 410 nm and an enzyme concentration which gave a rate of 0.01-0.02 AU/min was used. Enzyme and inhibitor were pre-incubated for 10 min in the final amounts of buffer and DMSO. The reaction was then started by the addition of substrate. After 30 min incubation the reaction was terminated by the addition of 10% SDS (0.1 ml) and the absorbance measured. Enzyme blanks were run concurrently to account for any background absorbance by the compound. Inhibition was calculated by the net A410 in the presence of inhibitor compared to that in the absence of inhibitor (DMSO controls).
Take `CO[C@H]1C(=O)N2C(C(=O)OC(C)(C)C)=C(COC(C)=O)/C(=C\c3ccco3)S(=O)(=O)[C@H]12` [drawing 34]: the inhibition at 10 µM stood at 94.7%.
`CO[C@H]1C(=O)N2C(C(=O)OC(C)(C)C)=C(COC(C)=O)/C(=C\c3ccsc3)S(=O)(=O)[C@H]12` [drawing 35] yielded an inhibition at 10 µM of 98.9%.
Compound `CO[C@H]1C(=O)N2C(C(=O)OC(C)(C)C)=C(COC(C)=O)/C(=C/c3ccccc3F)S(=O)(=O)[C@H]12` [drawing 36] showed an inhibition at 10 µM of 96.8%.
With `CO[C@H]1C(=O)N2C(C(=O)OC(C)(C)C)=C(COC(C)=O)/C(=C\c3ccccc3F)S(=O)(=O)[C@H]12` [drawing 37], testing at 10 µM gave an inhibition of 98.5%.
